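Dose response: 5 concentrations. Exposure: 48 h. Format: 96-well plates. Endpoint: linear interpolation; highest concentration if not reached. The concentration for 50% growth inhibition is given as GI50.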 Calls of active or inactive are those of the source. No stated cut-off is given here; in the data, active = GI50 up to about 1.1 µM and inactive = higher.
Legend:
Test in all cases: inhibition of tumour cell growth, NCI panel, 48 h
[1] = tested on: A549
[2] = tested on: CAKI-1
[3] = tested on: HCT-15
[4] = tested on: LOX IMVI
[5] = tested on: SNB-75
[6] = tested on: CCRF-CEM
[7] = tested on: OVCAR-8
[8] = tested on: A498
[9] = tested on: MDA-MB-435
[10] = tested on: M14
[11] = tested on: RXF 393
[12] = tested on: SN12C
[13] = tested on: SK-MEL-5
[14] = tested on: HOP-92
[15] = tested on: MOLT-4
[16] = tested on: PC-3
[17] = tested on: OVCAR-4
[18] = tested on: 786-0
[19] = tested on: SK-MEL-2
[20] = tested on: K562
[21] = tested on: IGROV-1
[22] = tested on: OVCAR-3
[23] = tested on: UACC-62
[24] = tested on: SR
[25] = tested on: HL-60
[26] = tested on: SF-295
[27] = tested on: SW-620
[28] = tested on: SK-OV-3
[29] = tested on: Malme-3M
[30] = tested on: SF-268
[31] = tested on: HCT-116
[32] = tested on: HT-29
[33] = tested on: TK-10
[34] = tested on: DU-145
[35] = tested on: NCI-H23
[36] = tested on: NCI-H522
[37] = tested on: MDA-N
[38] = tested on: NCI/ADR-RES
[39] = tested on: UO-31
[40] = tested on: SNB-19
[41] = tested on: MDA-MB-231
[42] = tested on: NCI-H226
[43] = tested on: OVCAR-5
[44] = tested on: NCI-H460
[45] = tested on: KM12
[46] = tested on: T47D
[47] = tested on: MCF7
[48] = tested on: U-251
[49] = tested on: HOP-62
[50] = tested on: EKVX
[51] = tested on: BT-549
[52] = tested on: SF-539
[53] = tested on: COLO 205
[54] = tested on: ACHN
[55] = tested on: RPMI-8226
[56] = tested on: Hs-578T
[57] = tested on: UACC-257
[58] = tested on: SK-MEL-28
[59] = tested on: HCC 2998

Measured: GI50

Cn1c2cn[nH]c(=O)c2c2ccc3ccccc3c21
23.9 µM: [3]
inactive: [1] 27.7 µM | [2] 42.4 µM | [4] 21.9 µM | [5] 16.1 µM | [6] 59.2 µM | [7] 41.6 µM | [8] 9.04 µM | [9] 69.7 µM | [10] > 100 µM | [11] 19.3 µM | [12] 44.6 µM | [13] 31.5 µM | [14] 10.6 µM | [15] 27.2 µM | [16] 51.2 µM | [17] 58.1 µM | [18] 7.62 µM | [19] 18.2 µM | [20] 86.1 µM | [21] 11.7 µM | [22] > 100 µM | [23] 22.4 µM | [24] 35.9 µM | [25] 85.5 µM | [26] 18.9 µM | [27] 52.6 µM | [28] 28.8 µM | [29] > 100 µM | [30] 22.6 µM | [31] 29 µM | [32] 37.3 µM | [33] 49.8 µM | [34] 59.3 µM | [35] 21.6 µM | [36] 16.9 µM | [37] > 100 µM | [38] 84.1 µM | [39] 16.1 µM | [40] 26.5 µM | [41] 15.4 µM | [42] 36.1 µM | [43] > 100 µM | [44] 20 µM | [45] > 100 µM | [46] > 100 µM | [47] 30.2 µM | [48] 19.9 µM | [49] 13.1 µM | [50] 3.6 µM | [51] 42.9 µM | [52] 48.4 µM | [53] 23.9 µM | [54] 16.9 µM | [55] 60.3 µM | [56] 11.9 µM | [57] > 100 µM

O=C(c1ccccc1)c1ccc2[nH]c(-c3c(Cl)c(Cl)c(Cl)c(Cl)c3C(=O)N/N=C/c3ccc(Cl)cc3)nc2c1
inactive: [1] 33 µM | [2] 61.8 µM | [4] 34 µM | [5] 47 µM | [6] 18.3 µM | [58] 33 µM | [7] 51.8 µM | [9] 32.8 µM | [10] 30.1 µM | [11] 22.5 µM | [12] 39.2 µM | [13] 17.2 µM | [14] 43.6 µM | [15] 18.3 µM | [16] 37 µM | [17] 30.3 µM | [18] 31.2 µM | [19] 29.4 µM | [20] 23.7 µM | [21] 33 µM | [22] 17.5 µM | [24] 28.2 µM | [25] 4.06 µM | [26] 29 µM | [27] 54.3 µM | [28] 41.1 µM | [29] 37.4 µM | [30] 40.7 µM | [31] 44.6 µM | [32] 35.2 µM | [33] 40.1 µM | [34] 56.8 µM | [35] 30.1 µM | [36] 19.5 µM | [37] 29.8 µM | [38] 47.8 µM | [39] 42.6 µM | [40] 43 µM | [41] 20.7 µM | [42] 39.8 µM | [43] 64.7 µM | [45] 48.4 µM | [46] 18.3 µM | [47] 20.6 µM | [48] 44.1 µM | [49] 31.7 µM | [50] 23.2 µM | [51] 33.7 µM | [52] 64.9 µM | [53] 28.1 µM | [54] 19.9 µM | [55] 19.3 µM | [56] 57.9 µM | [57] 43.3 µM
24.2 µM: [3]

COc1nc(C)nc2sc3c(c12)CCCC3
inactive: [2] > 100 µM | [4] > 100 µM | [5] 93.3 µM | [58] > 100 µM | [7] > 100 µM | [8] > 100 µM | [9] > 100 µM | [11] > 100 µM | [12] > 100 µM | [13] > 100 µM | [15] > 100 µM | [16] > 100 µM | [17] > 100 µM | [18] > 100 µM | [19] > 100 µM | [20] > 100 µM | [21] > 100 µM | [22] > 100 µM | [23] > 100 µM | [24] > 100 µM | [25] > 100 µM | [26] > 100 µM | [27] > 100 µM | [29] > 100 µM | [30] > 100 µM | [31] > 100 µM | [32] > 100 µM | [33] > 100 µM | [59] > 100 µM | [34] > 100 µM | [35] > 100 µM | [36] > 100 µM | [37] > 100 µM | [38] > 100 µM | [39] 89.9 µM | [40] > 100 µM | [41] > 100 µM | [42] > 100 µM | [43] > 100 µM | [44] > 100 µM | [45] > 100 µM | [46] > 100 µM | [47] > 100 µM | [48] > 100 µM | [49] > 100 µM | [50] 38.4 µM | [51] > 100 µM | [53] > 100 µM | [54] > 100 µM | [55] 55.3 µM | [56] > 100 µM | [57] > 100 µM
> 100 µM: [3]
